The text below walks through data of patent publication US9556159B2, “Renin inhibitor” (MITSUBISHI TANABE PHARMA CORPORATION, priority 2012, dated 2017).

The term IC50 denotes the point on the concentration scale where inhibition reaches its midpoint.

For this assay, the target named is T1, Recombinant human renin (Homo sapiens, UniProt P00797).
T1 sequence (P00797 67-406): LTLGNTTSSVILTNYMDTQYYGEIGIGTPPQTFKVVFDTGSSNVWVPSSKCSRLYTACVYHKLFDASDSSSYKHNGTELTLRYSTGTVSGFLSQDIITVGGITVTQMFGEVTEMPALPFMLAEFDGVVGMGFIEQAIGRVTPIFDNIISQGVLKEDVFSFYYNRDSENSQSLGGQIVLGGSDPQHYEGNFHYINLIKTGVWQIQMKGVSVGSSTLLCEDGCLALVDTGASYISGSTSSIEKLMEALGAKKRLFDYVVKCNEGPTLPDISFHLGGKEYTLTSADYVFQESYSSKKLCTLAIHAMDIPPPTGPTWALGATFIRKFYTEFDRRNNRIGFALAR
As to the kind of experiment: Inhibitory activity against human renin (fluorogenic peptide substrate). It is filed as biochemical. Particulars: 37° C. for 1 hour.

Setting [1] is: 50% inhibitory concentration (IC50) against human renin.

Like-named read-outs stand apart in the source and are kept apart here.

On to `COC(=O)NCCCn1nc([C@@H](C)N(C(=O)[C@H]2CN[C@@H](CC(F)F)CO2)C2CC2)c2ccc(C)nc21` [Example 305], for which the IC50 under setting [1] turned out to be 1.2 nM. For `COc1ccc(Cn2cc([C@@H](C)N(C(=O)[C@H]3CNCCO3)C3CC3)nc2-c2ccccc2)cc1` [Example 204], under setting [1], the IC50 turned out to be 7.1 nM.

For the compound `COC(=O)NCCCc1cc([C@@H](C)N(C(=O)[C@H]2CN[C@@H](C)CO2)C2CC2)nn1-c1ccc(F)cc1` [Example 371], the IC50 under setting [1] amounted to 1 nM. Same read-out and setting: next, `COC(=O)NCCCn1cc([C@@H](C)N(C(=O)[C@H]2CNCCO2)C2CC2)c2cnc(C)cc21` [Example 135]: 6.3 nM; `COC(=O)NCCCc1cc([C@@H](C)N(C(=O)[C@H]2CNCCO2)C2CC2)sc1-c1ccc(F)cn1` [Example 235]: 0.1 nM. On the same count and under the same terms, with `COC(=O)NCCCn1nc([C@@H](C)N(C(=O)[C@H]2CNC[C@@H](C(=O)NCc3ccccc3)O2)C2CC2)c2ccc(C)nc21` [Example 253] the figure was 0.4 nM.

For `COCCCCn1cc([C@@H](C)N(C(=O)[C@H]2CNCCO2)C2CC2)c2ncc(C)cc21` [Example 20], for the setting “read-out: IC50”, the IC50 is 0.5 nM. As for `COC(=O)NCCCc1nc([C@@H](C)N(C(=O)[C@H]2CNCCO2)C2CC2)sc1-c1cccc(F)c1` [Example 400], the IC50 under setting [1] came to 2.3 nM. On to `COCCCn1cc(C(C)C)c2cnc([C@@H](C)N(C(=O)[C@H]3CNCCO3)C3CC3)nc21` [Example 73], for which, for the setting “read-out: IC50”, the IC50 worked out at 1.4 nM. Turning to `COC[C@@H]1CNC[C@H](C(=O)N(C2CC2)[C@H](C)c2cc(OC)c3ccccc3n2)O1` [Example 201], the IC50 under setting [1] worked out at 4.1 nM. Turning to `COCCCn1cc(CCCNC(=O)OC)c2cnc([C@@H](C)N(C(=O)[C@H]3CNCCO3)C3CC3)cc21` [Example 83], the IC50 (read-out: IC50) stood at 2.1 nM. Turning to `CCOC[C@@H]1CNC[C@H](C(=O)N(C2CC2)[C@@H](C)c2cc(CCCNC(=O)OC)nc(OC)c2)O1` [Example 311], the IC50 under setting [1] was found to be 0.4 nM.

Take `COC(=O)NCCCn1nc([C@@H](C)N(C(=O)[C@H]2CNCCO2)C2CC2)cc1-c1ccc(F)cn1` [Example 177]: the IC50 under setting [1] was determined as 1 nM. The same measure, in the same setting: with `COC(=O)NCCCc1cc([C@H](C)N(C(=O)[C@H]2CNCCO2)C2CC2)sc1-c1ccnn1C` [Example 427] the figure was 3.5 nM. As to `COCCCc1cn(C)c2ncc([C@@H](C)N(C(=O)[C@H]3CNCCO3)C3CC3)cc12` [Example 47], the IC50 (read-out: IC50) was found to be 4.8 nM. Turning to `COC(=O)NCCCn1cc([C@@H](C)N(C(=O)[C@H]2CNC[C@@H](C)O2)C2CC2)nc1C(C)C` [Example 245], the IC50 under setting [1] was 0.3 nM. Same read-out and setting: with `COC(=O)NCCCn1nc([C@@H](C)N(C(=O)[C@H]2CNCCO2)C2CC2)nc1-c1ccccc1C` [Example 248] the figure was 0.9 nM; with `COC(=O)NCCN1CC(C)(C)c2ccc([C@@H](C)N(C(=O)[C@H]3CNCCO3)C3CC3)cc21` [Example 151], 1 nM; with `COC(=O)NCCCc1nc([C@@H](C)N(C(=O)[C@H]2CNC[C@@H](C)O2)C2CC2)sc1-c1cccc(Cl)c1` [Example 376], 4.7 nM. Regarding `COC(=O)NCCCc1cc([C@@H](C)N(C(=O)[C@H]2CNCCO2)C2CC2)sc1C(F)(F)F` [Example 246], the IC50 under setting [1] is 0.4 nM. For the compound `COCCCCn1cc([C@@H](C)N(C(=O)[C@H]2CNCCO2)C2CC2)c2nccc(COC)c21` [Example 115], the half-inhibitory concentration (IC50) under setting [1] came out at 1.8 nM. Same read-out and setting: with `COC(=O)NCCCn1cc([C@@H](C)N(C(=O)[C@H]2CN[C@@H](COCc3ccccc3)CO2)C2CC2)nc1C1CCOCC1` [Example 299] the figure was 0.9 nM. Take `COC(=O)NCCCn1nc([C@@H](C)N(C(=O)[C@H]2CNCCO2)C2CC2)c2ccc(CO)cc21` [Example 63]: the IC50 (read-out: IC50) stood at 1.3 nM. Take `COC(=O)NCCCn1cc([C@@H](C)N(C(=O)[C@H]2CNCCO2)C2CC2)nc1C(F)(F)F` [Example 319]: under setting [1], the IC50 stood at 3.5 nM. For `COC(=O)NCCCc1cc([C@@H](C)N(C(=O)[C@H]2CNCCO2)C2CC2)nn1-c1ccccc1` [Example 183], under setting [1], the IC50 was found to be 0.3 nM. The same measure, in the same setting: with `COC(=O)NCCCc1cc([C@@H](C)N(C(=O)[C@H]2CNCCO2)C2CC2)nn1-c1ccccc1F` [Example 211] the figure was 0.5 nM. For `COCc1cccc2c([C@@H](C)N(C(=O)[C@H]3CNCCO3)C3CC3)nn(CCCNC(=O)OC)c12` [Example 81], the IC50 (read-out: IC50) amounted to 0.4 nM. For `COC(=O)NCCCc1c(F)c([C@@H](C)N(C(=O)[C@H]2CNCCO2)C2CC2)nn1-c1ccccc1` [Example 244], the IC50 under setting [1] was 1 nM.

In the case of `COC[C@H]1CO[C@@H](C(=O)N(C2CC2)[C@H](C)c2cc(CCCNC(=O)OC)n(C3CCOCC3)n2)CN1` [Example 302], the IC50 under setting [1] was 1.6 nM. For the compound `COC(=O)NCCCc1cc([C@@H](C)N(C(=O)[C@H]2CNCCO2)C2CC2)sc1C#CC(C)(C)O` [Example 423], the IC50 under setting [1] came out at 1 nM. On the same count and under the same terms, next, `COC(=O)NCc1cc([C@@H](C)N(C(=O)[C@H]2CNCCO2)C2CC2)nc2ccccc12` [Example 154]: 2.4 nM.

With `COc1cccc(Cn2cc([C@@H](C)N(C(=O)[C@H]3CNCCO3)C3CC3)nc2-c2ccccc2)c1` [Example 195], the concentration for half-maximal inhibition (IC50) under setting [1] was found to be 3.6 nM. Still for that read-out and setting: next, `COC(=O)NCCCc1cc([C@@H](C)N(C(=O)[C@H]2CNCCO2)C2CC2)sc1-c1ccccc1NS(C)(=O)=O` [Example 269]: 0.3 nM; `COC(=O)NCCCc1nc([C@@H](C)N(C(=O)[C@H]2CNCCO2)C2CC2)sc1C(=O)Nc1ccccc1OC` [Example 439]: 8 nM; `COC[C@H]1CO[C@@H](C(=O)N(C2CC2)[C@@H](C)c2nn(CCCNC(=O)OC)c(C3CCOCC3)c2F)CN1` [Example 328]: 1.1 nM.

Take `COCCNc1ncc([C@@H](C)N(C(=O)[C@H]2CNCCO2)C2CC2)nc1CCCNC(=O)OC` [Example 444]: the IC50 under setting [1] was found to be 4.2 nM. On the same count and under the same terms, with `COC(=O)NCCCc1cc([C@H](C)N(C(=O)[C@H]2CNC[C@@H](COc3ccccc3)O2)C2CC2)nn1C1CCOCC1` [Example 334] the figure was 0.3 nM. For the compound `CCc1nc([C@@H](C)N(C(=O)[C@H]2CNC[C@@H](C)O2)C2CC2)cc2c1ncn2CCCOC` [Example 392], the half-maximal inhibitory concentration (IC50) under setting [1] turned out to be 0.7 nM. On the same count and under the same terms, next, `COc1ccc2nc([C@@H](C)N(C(=O)[C@H]3CNCCO3)C3CC3)cc(CCCNC=O)c2c1` [Example 157]: 3.4 nM. The same measure, in the same setting: with `COC(=O)NCCCn1nc([C@@H](C)N(C(=O)[C@H]2CNC[C@@H](C(F)(F)F)O2)C2CC2)c2ccc(C)nc21` [Example 239] the figure was 3.1 nM. In the case of `CCc1ccnc2c([C@@H](C)N(C(=O)[C@H]3CNCCO3)C3CC3)cn(CCCCOC)c12` [Example 79], the IC50 (read-out: IC50) was found to be 0.9 nM. As for `CCc1cn(CCCOC)c2cc([C@@H](C)N(C(=O)[C@H]3CNCCO3)C3CC3)nc(CC)c12` [Example 152], the IC50 under setting [1] was determined as 1.1 nM. As to `COCCCCn1cc([C@@H](C)N(C(=O)[C@H]2CNCCO2)C2CC2)c2nccnc21` [Example 80], the IC50 (read-out: IC50) was 5.7 nM. As for `COC(=O)NCCCn1cc([C@@H](C)N(C(=O)[C@H]2CN[C@@H](C)CO2)C2CC2)nc1-c1ccccc1` [Example 353], the IC50 under setting [1] was 0.4 nM. The same measure, in the same setting: next, `CCOc1cc([C@@H](C)N(C(=O)[C@H]2CNCCO2)C2CC2)cc(CCCNC(=O)OC)n1` [Example 237]: 0.5 nM. For the compound `COC(=O)NCCCn1cc([C@@H](C)N(C(=O)[C@H]2CNCCO2)C2CC2)c2ncccc21` [Example 43], the IC50 (read-out: IC50) is 0.6 nM.

For the compound `COC(=O)NCCCn1nc([C@@H](C)N(C(=O)[C@H]2CNCCO2)C2CC2)cc1-c1ncc(C)cc1F` [Example 223], under setting [1], the IC50 was 0.4 nM.

`COC(=O)NCCCn1nc([C@@H](C)N(C(=O)[C@H]2CNCCO2)C2CC2)c(F)c1-c1ccccn1` [Example 216]: the IC50 under setting [1] is 0.1 nM. Same read-out and setting: next, `COC(=O)NCCCc1sc(C(C)N(C(=O)[C@H]2CNCCO2)C2CC2)cc1-c1cccnc1` (stereo partly shown) [Example 430]: 2.4 nM; `COC(=O)NCCCc1cc([C@@H](C)N(C(=O)[C@H]2CNCCO2)C2CC2)sc1-c1cc(F)cc(F)c1O` [Example 275]: 0.9 nM; `COC(=O)NCCCc1sc([C@H](C)N(C(=O)[C@H]2CNCCO2)C2CC2)cc1Br` [Example 437]: 2.7 nM. For the compound `COC(=O)NCCc1cn(C)c2ccc([C@@H](C)N(C(=O)[C@H]3CNCCO3)C3CC3)cc12` [Example 108], where the note is “read-out: IC50”, the IC50 was 1.1 nM.

For `COC(=O)NCCCc1cc(OC)cc([C@@H](C)N(C(=O)[C@H]2CNCCO2)C2CC2)c1` [Example 85], the IC50 (read-out: IC50) was found to be 1 nM. As for `COCCOc1cc([C@@H](C)N(C(=O)[C@H]2CNC[C@@H](COC)O2)C2CC2)cc(CCCNC(=O)OC)n1` [Example 383], under setting [1], the IC50 came out at 1.3 nM.

Regarding `COC(=O)NCCCc1cc([C@@H](C)N(C(=O)[C@H]2CNCCO2)C2CC2)cc(N(C)S(C)(=O)=O)n1` [Example 362], the IC50 under setting [1] was found to be 5 nM. Same read-out and setting: with `COC(=O)NCCCc1cc([C@@H](C)N(C(=O)[C@H]2CNCCO2)C2CC2)cc2cccnc12` [Example 145] the figure was 0.5 nM; with `COC(=O)NCCCc1sc([C@@H](C)N(C(=O)[C@H]2CNCCO2)C2CC2)cc1-c1ccc(F)cc1` [Example 428], 8.1 nM; with `COC(=O)NCCCc1nc(C(C)N(C(=O)[C@H]2CNCCO2)C2CC2)nn1-c1cccc(Cl)c1` (stereo partly shown) [Example 360], 7.6 nM. The same measure, in the same setting: with `COC(=O)NCCCn1nc([C@@H](C)N(C(=O)[C@H]2CNCCO2)C2CC2)cc1-c1ncccc1C` [Example 187] the figure was 0.5 nM. Same read-out and setting: with `CCc1ncc([C@@H](C)N(C(=O)[C@H]2CNCCO2)C2CC2)cc1CCCCOC` [Example 126] the figure was 6 nM; with `COC(=O)NCCCn1nc([C@@H](C)N(C(=O)[C@H]2CNCCO2)C2CC2)cc1-c1ccc(C)nc1` [Example 180], 0.6 nM.
